Measurements from ChEMBL document CHEMBL5154852, “Design, synthesis, and biological evaluations of substituted pyrazoles as pyrrolomycin analogues against staphylococcal biofilm” (Eur J Med Chem, 2022).
≈ marks a conversion by molar mass, not a printed value. Where “and” joins values, the source holds several entries; their conditions need not be identical. Equal entries are not always repeated. Calls of active or inactive are those of the source. The rule behind the calls is not given here.

Legend:
Staphylococcus aureus [1] = assay: Antimicrobial activity against methicillin-resistant Staphylococcus aureus USA300 LAC incubated for 24 hrs by broth microdilution method; type: functional
Staphylococcus aureus [2] = assay: Antibacterial activity against vancomycin-intermediate Staphylococcus aureus Mu50 incubated for 24 hrs by broth microdilution method; type: functional
Staphylococcus aureus [3] = assay: Antibacterial activity against vancomycin-susceptible methicillin-susceptible Staphylococcus aureus Newman incubated for 24 hrs by broth microdilution method; type: functional
[4] = Metabolic stability in human liver microsomes assessed metabolic bioavailability at 0.1 uM in presence of NADPH measured by LC-MS/MS analysis; type: ADME, Microsome; conditions: read-out: Stability
Staphylococcus aureus [5] = assay: Antimicrobial activity against methicillin and linezoid-resistant Staphylococcus aureus NRS271 incubated for 24 hrs by broth microdilution method; type: functional
Enterococcus faecalis [6] = assay: Antibacterial activity against vancomycin-resistant, teicoplanin resistant Enterococcus faecalis HS0649 incubated for 24 hrs by broth microdilution method; type: functional
Enterococcus faecalis [7] = assay: Antibacterial activity against vancomycin-resistant, teicoplanin sensitive Enterococcus faecalis HS08257 incubated for 24 hrs by broth microdilution method; type: functional
[8] = Metabolic stability in mouse liver microsomes assessed metabolic bioavailability at 0.1 uM in presence of NADPH measured by LC-MS/MS analysis; type: ADME, Microsome; conditions: read-out: Stability
[9] = Cytotoxicity against human L02 cells after 72 hrs by CCK-8 assay; type: toxicity, cell-based
Enterococcus faecalis [10] = assay: Antibacterial activity against vancomycin-resistant, teicoplanin sensitive Enterococcus faecalis HS0847 incubated for 24 hrs by broth microdilution method; type: functional
Staphylococcus aureus [11] = assay: Antimicrobial activity against methicillin-resistant Staphylococcus aureus USA400 MW2 incubated for 24 hrs by broth microdilution method; type: functional
Staphylococcus aureus [12] = assay: Antimicrobial activity against methicillin-resistant Staphylococcus aureus NRS100 incubated for 24 hrs by broth microdilution method; type: functional
[13] = Metabolic stability in monkey liver microsomes assessed metabolic bioavailability at 0.1 uM in presence of NADPH measured by LC-MS/MS analysis; type: ADME, Macaca mulatta, Microsome; conditions: rhesus monkey, read-out: Stability
Staphylococcus aureus [14] = assay: Antibiofilm activity against methicillin-resistant Staphylococcus aureus USA300 LAC assessed as decrease in biofilm formation at 0.0625 ug/ml measured by crystal violet staining assay; type: functional, organism-based; conditions: dose 0.0625 µg/ml
[15] = Metabolic stability in dog liver microsomes assessed metabolic bioavailability at 0.1 uM in presence of NADPH measured by LC-MS/MS analysis; type: ADME, Canis lupus familiaris, Microsome; conditions: read-out: Stability
Enterococcus faecalis [16] = assay: Antibacterial activity against vancomycin-resistant, teicoplanin resistant Enterococcus faecalis HS06188 incubated for 24 hrs by broth microdilution method; type: functional
[17] = Selectivity index, ratio of IC50 for L02 cell cytotoxicity over MIC for vancomycin-susceptible methicillin-susceptible Staphylococcus aureus Newman; type: toxicity; conditions: human, L02 cells
Enterococcus faecalis [18] = assay: Antibacterial activity against vancomycin-resistant, teicoplanin sensitive Enterococcus faecalis VanB01 incubated for 24 hrs by broth microdilution method; type: functional

SMILES	MIC (Staphylococcus aureus [1]) [µg/mL]	MIC (Staphylococcus aureus [2]) [µg/mL]	MIC (Staphylococcus aureus [3]) [µg/mL]	other results
N#Cc1n[nH]c2c(=O)c3c(O)c(Cl)cc(Cl)c3sc12	2 (≈ 6.41 µM)	2 (≈ 6.41 µM)	2 (≈ 6.41 µM)	–
O=C(c1cc(C(F)(F)F)n[nH]1)c1cc(Cl)c(Cl)cc1O	0.0625 (≈ 0.192 µM)	0.0312 (≈ 0.0961 µM)	0.0625 (≈ 0.192 µM)	Fh at 0.1 µM [4]: 42%; MIC (Staphylococcus aureus [5]): > 128 µg/mL; MIC (Enterococcus faecalis [6]): 0.5 µg/mL (≈ 1.54 µM); MIC (Enterococcus faecalis [7]): < 0.125 µg/mL; Fh at 0.1 µM [8]: 10.1%; IC50 at 72 h [9]: 2.57 µM and 0.84 µg/mL; MIC (Enterococcus faecalis [10]): 0.25 µg/mL (≈ 0.769 µM); MIC (Staphylococcus aureus [11]): 0.25 µg/mL (≈ 0.769 µM); MIC (Staphylococcus aureus [12]): 0.5 µg/mL (≈ 1.54 µM); Fh at 0.1 µM [13]: 28.6%; Activity (Staphylococcus aureus [14]): Active; Fh at 0.1 µM [15]: 7.07%; MIC (Enterococcus faecalis [16]): > 128 µg/mL; selectivity ratio [17]: > 13; MIC (Enterococcus faecalis [18]): 0.5 µg/mL (≈ 1.54 µM)
CN[C@H](CC(C)C)C(=O)N[C@H]1C(=O)N[C@@H](CC(N)=O)C(=O)N[C@H]2C(=O)N[C@H]3C(=O)N[C@H](C(=O)N[C@H](C(=O)O)c4cc(O)cc(O)c4-c4cc3ccc4O)[C@H](O)c3ccc(c(Cl)c3)Oc3cc2cc(c3O[C@@H]2O[C@H](CO)[C@@H](O)[C@H](O)[C@H]2O[C@H]2C[C@](C)(N)[C@H](O)[C@H](C)O2)Oc2ccc(cc2Cl)[C@H]1O [VANCOMYCIN]	–	8 (≈ 5.52 µM)	–	MIC (Enterococcus faecalis [6]): 0.5 µg/mL (≈ 0.345 µM); MIC (Enterococcus faecalis [7]): < 0.125 µg/mL; IC50 at 72 h [9]: > 30 µM and > 43 µg/mL; MIC (Enterococcus faecalis [10]): 0.25 µg/mL (≈ 0.173 µM); MIC (Staphylococcus aureus [11]): < 0.125 µg/mL; MIC (Enterococcus faecalis [16]): 2 µg/mL (≈ 1.38 µM); MIC (Enterococcus faecalis [18]): 0.25 µg/mL (≈ 0.173 µM)
COC(=O)c1n[nH]c2c(=O)c3c(O)c(Cl)cc(Cl)c3oc12	16 (≈ 48.6 µM)	16 (≈ 48.6 µM)	4 (≈ 12.2 µM)	–
N#Cc1cc(C(=O)c2cc(Cl)c(F)cc2O)[nH]n1	0.5 (≈ 1.88 µM)	0.5 (≈ 1.88 µM)	0.5 (≈ 1.88 µM)	–
NC(=O)c1n[nH]c2c(=O)c3c(O)c(Cl)cc(Cl)c3oc12	> 256	> 256	> 256	–
O=C1c2[nH]nc(C(F)(F)F)c2S(=O)(=O)c2c(Cl)cc(Cl)c(O)c21	256 (≈ 661 µM)	256 (≈ 661 µM)	128 (≈ 331 µM)	–
O=c1c2ccccc2sc2c(C(F)(F)F)n[nH]c12	> 256	> 256	> 256	–
N#Cc1n[nH]c2c(=O)c3c(O)c(Cl)cc(Cl)c3oc12	8 (≈ 27 µM)	8 (≈ 27 µM)	4 (≈ 13.5 µM)	–
O=C(O)c1n[nH]c2c(=O)c3c(O)c(Cl)cc(Cl)c3oc12	> 256	> 256	> 256	–
Cc1n[nH]c2c(=O)c3c(O)c(Cl)cc(Cl)c3oc12	> 256	> 256	> 256	–
N#Cc1n[nH]c2c(=O)c3ccccc3sc12	32 (≈ 141 µM)	32 (≈ 141 µM)	8 (≈ 35.2 µM)	–
N#Cc1cc(C(=O)c2cc(Cl)cc(Cl)c2O)[nH]n1	2 (≈ 7.09 µM)	2 (≈ 7.09 µM)	2 (≈ 7.09 µM)	–
O=c1c2[nH]nc(C(F)(F)F)c2sc2c(Cl)cc(Cl)c(O)c12	2 (≈ 5.63 µM)	1 (≈ 2.82 µM)	2 (≈ 5.63 µM)	–
Cc1cc(C(=O)c2cc(C(F)(F)F)n[nH]2)c(O)cc1F	0.25 (≈ 0.867 µM)	1 (≈ 3.47 µM)	0.25 (≈ 0.867 µM)	–
O=C(O)c1cn(C2CC2)c2cc(N3CCNCC3)c(F)cc2c1=O [CIPROFLOXACIN]	2 (≈ 6.04 µM)	32 (≈ 96.6 µM)	0.25 (≈ 0.754 µM)	IC50 at 72 h [9]: 12.2 µM and 4.05 µg/mL
N#Cc1cc(C(=O)c2cc(Cl)c(Cl)cc2O)[nH]n1	0.25 (≈ 0.886 µM)	0.25 (≈ 0.886 µM)	0.25 (≈ 0.886 µM)	Fh at 0.1 µM [4]: 69.7%; MIC (Staphylococcus aureus [5]): 1 µg/mL (≈ 3.55 µM); MIC (Enterococcus faecalis [6]): 0.5 µg/mL (≈ 1.77 µM); MIC (Enterococcus faecalis [7]): 0.25 µg/mL (≈ 0.886 µM); Fh at 0.1 µM [8]: 10.2%; IC50 at 72 h [9]: 10.7 µM and 3.02 µg/mL; MIC (Enterococcus faecalis [10]): 0.5 µg/mL (≈ 1.77 µM); MIC (Staphylococcus aureus [11]): < 0.125 µg/mL; MIC (Staphylococcus aureus [12]): 0.5 µg/mL (≈ 1.77 µM); Fh at 0.1 µM [13]: 85.6%; Activity (Staphylococcus aureus [14]): Active; Fh at 0.1 µM [15]: 9.79%; MIC (Enterococcus faecalis [16]): > 128 µg/mL; selectivity ratio [17]: > 12; MIC (Enterococcus faecalis [18]): 1 µg/mL (≈ 3.55 µM)
O=C(c1cc(C(F)(F)F)n[nH]1)c1cc(F)c(F)cc1O	0.5 (≈ 1.71 µM)	1 (≈ 3.42 µM)	0.5 (≈ 1.71 µM)	–
Cc1cc(C(=O)c2cc(C#N)n[nH]2)c(O)cc1F	0.5 (≈ 2.04 µM)	0.25 (≈ 1.02 µM)	0.5 (≈ 2.04 µM)	–
N#Cc1n[nH]c2c1S(=O)(=O)c1ccccc1C2=O	> 256	> 256	> 256	–
O=C1c2ccccc2S(=O)(=O)c2c(C(F)(F)F)n[nH]c21	> 256	> 256	> 256	–
O=C(c1cc(C(F)(F)F)n[nH]1)c1cc(Cl)c(F)cc1O	0.25 (≈ 0.81 µM)	0.25 (≈ 0.81 µM)	0.25 (≈ 0.81 µM)	MIC (Staphylococcus aureus [5]): > 128 µg/mL; MIC (Enterococcus faecalis [6]): 1 µg/mL (≈ 3.24 µM); MIC (Enterococcus faecalis [7]): 0.5 µg/mL (≈ 1.62 µM); MIC (Enterococcus faecalis [10]): 0.5 µg/mL (≈ 1.62 µM); MIC (Staphylococcus aureus [11]): 0.25 µg/mL (≈ 0.81 µM); MIC (Staphylococcus aureus [12]): 0.25 µg/mL (≈ 0.81 µM); MIC (Enterococcus faecalis [16]): > 128 µg/mL; MIC (Enterococcus faecalis [18]): 1 µg/mL (≈ 3.24 µM)
O=c1c2[nH]nc(C(F)(F)F)c2oc2c(Cl)cc(Cl)c(O)c12	2 (≈ 5.9 µM)	1 (≈ 2.95 µM)	1 (≈ 2.95 µM)	–
